# Assay results published in patent US6651382B1, “Method for preventing the release of gramineous plant pollens” (National Agricultural Research Organization, priority 1999, dated 2003).
# Test system: flowering barley line derived from a barley line "Satsuki-Nijo"
# Assay: Flowering inhibition test on harvested unflowered barley ears treated with reagent solution
# Assay type: in vivo
# Experimental: A flowering barley line derived from a barley line “Satsuki-Nijo” was conventionally cultivated in the fields. At the earing time, unflowered ears immediately after earing were harvested. Each group of three ears was then treated with 10 cc reagent solution containing 1-100 ppm methyl jasmonate as a jasmonic acid derivative in an artificial climate chamber under the following conditions: in the light having a brightness of 120 […] for 14 hours at 25° C.; and in the dark for 10 hours at 15° C.
# Flowered ears were transferred to a culture medium for cuttings and cultivated for about 20 days. The number of anthers remaining in a glumaceous flower after self-pollination was measured and used as a control.
# [1] = Table 2 (repeated test), reagent concentration 1 ppm
# [2] = Table 2 (repeated test), reagent concentration 10 ppm
# [3] = Table 2 (repeated test), reagent concentration 100 ppm
compound,measurement,setting,value
"CC/C=C\CC1C(=O)CCC1CC(=O)OC (stereo not drawn) [Methyl jasmonate, methyl jasmonate]",Number of remaining anthers per one glumaceous flower,"Table 1, reagent concentration 1 ppm, after self-pollination",0.7
same,Number of flowered ears on the 6th day,"Table 1, reagent concentration 1 ppm, group of three ears, 10 cc solution",3
same,Number of remaining anthers per one glumaceous flower,"Table 1, reagent concentration 10 ppm, after self-pollination",1.7
same,Number of remaining anthers per one glumaceous flower,"Table 1, reagent concentration 10 ppm, after self-pollination, listed as methyl jasmonate",more anthers than non-treated ears
same,Number of flowered ears on the 6th day,"Table 1, reagent concentration 10 ppm, group of three ears, 10 cc solution",3
same,Number of remaining anthers per one glumaceous flower,"Table 1, reagent concentration 100 ppm, after self-pollination",2.1
same,Number of remaining anthers per one glumaceous flower,"Table 1, reagent concentration 100 ppm, after self-pollination, listed as methyl jasmonate",many more remaining anthers
same,Number of flowered ears on the 6th day,"Table 1, reagent concentration 100 ppm, group of three ears, 10 cc solution",0
same,Number of flowered ears on the 6th day,"Table 1, reagent concentration 100 ppm, group of three ears, 10 cc solution, listed as methyl jasmonate",no flowering was observed
same,Number of flowered ears on the 6th day,[1],3
same,Number of remaining anthers per one glumaceous flower,[1],1.1
same,Number of flowered ears on the 6th day,[2],3
same,Number of remaining anthers per one glumaceous flower,[2],1.7
same,Number of flowered ears on the 6th day,[3],0
same,Number of remaining anthers per one glumaceous flower,[3],2.6
